{
  "source": "patent US11707503B2",
  "about": "“Modulators of complement activity” (Ra Pharmaceuticals, Inc., priority 2015, dated 2023)",
  "note": "Starred links: 1 amine or outer side, 2 acyl side, 3 side chain; linkers in the order of their positions; H or OH if unused. Positions of bridges follow the written chain, without caps; N, C: chain ends. Non-standard residues stand in square brackets, D forms with d. Residues, ends and D or L forms follow the SMILES beside them. Ala(1H-tetrazol-5-yl) = N[C@@H](Cc1nnn[nH]1)C(=O)O; Trp(7-aza) = N[C@@H](Cc1c[nH]c2ncccc12)C(=O)O; hPhe(3-Cl) = N[C@@H](CCc1cccc(Cl)c1)C(=O)O; 2Nal = N[C@@H](Cc1ccc2ccccc2c1)C(=O)O; mXylylene = c1cc(C[*:1])cc(C[*:2])c1; Chg = N[C@H](C(=O)O)C1CCCCC1; Tle = CC(C)(C)[C@H](N)C(=O)O; Ac5c = NC1(C(=O)O)CCCC1; Nva = CCC[C@H](N)C(=O)O; Thp = NC1(C(=O)O)CCOCC1",
  "data": [
    {"target": "C5 (Homo sapiens, UniProt P01031)", "sequence (P01031 678-1676 limits assumed)": "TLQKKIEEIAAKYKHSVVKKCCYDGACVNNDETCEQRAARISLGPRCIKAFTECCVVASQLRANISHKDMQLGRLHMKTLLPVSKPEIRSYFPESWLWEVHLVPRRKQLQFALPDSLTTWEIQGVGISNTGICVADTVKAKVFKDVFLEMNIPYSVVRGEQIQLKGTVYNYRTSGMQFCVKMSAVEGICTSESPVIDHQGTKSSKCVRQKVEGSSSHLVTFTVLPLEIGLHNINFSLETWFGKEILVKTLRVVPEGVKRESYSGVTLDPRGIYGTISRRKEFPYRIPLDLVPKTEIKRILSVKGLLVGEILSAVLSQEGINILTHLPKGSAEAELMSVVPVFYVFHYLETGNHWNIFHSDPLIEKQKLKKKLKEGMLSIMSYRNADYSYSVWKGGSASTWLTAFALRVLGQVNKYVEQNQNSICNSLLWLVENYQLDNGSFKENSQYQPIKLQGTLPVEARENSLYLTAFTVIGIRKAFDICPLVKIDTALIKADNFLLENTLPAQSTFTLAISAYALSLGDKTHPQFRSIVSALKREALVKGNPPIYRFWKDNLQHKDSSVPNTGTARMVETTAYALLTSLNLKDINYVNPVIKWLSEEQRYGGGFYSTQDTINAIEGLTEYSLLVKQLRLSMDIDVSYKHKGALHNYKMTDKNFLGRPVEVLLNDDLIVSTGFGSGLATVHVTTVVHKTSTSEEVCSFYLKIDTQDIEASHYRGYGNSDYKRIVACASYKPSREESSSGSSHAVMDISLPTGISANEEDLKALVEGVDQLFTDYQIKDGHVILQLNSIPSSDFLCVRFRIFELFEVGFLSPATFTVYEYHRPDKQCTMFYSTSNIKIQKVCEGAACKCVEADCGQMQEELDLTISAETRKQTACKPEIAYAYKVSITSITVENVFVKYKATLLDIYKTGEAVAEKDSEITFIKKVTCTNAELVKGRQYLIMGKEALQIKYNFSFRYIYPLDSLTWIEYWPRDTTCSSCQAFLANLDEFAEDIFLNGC", "sequence (P01031 19-673 limits assumed)": "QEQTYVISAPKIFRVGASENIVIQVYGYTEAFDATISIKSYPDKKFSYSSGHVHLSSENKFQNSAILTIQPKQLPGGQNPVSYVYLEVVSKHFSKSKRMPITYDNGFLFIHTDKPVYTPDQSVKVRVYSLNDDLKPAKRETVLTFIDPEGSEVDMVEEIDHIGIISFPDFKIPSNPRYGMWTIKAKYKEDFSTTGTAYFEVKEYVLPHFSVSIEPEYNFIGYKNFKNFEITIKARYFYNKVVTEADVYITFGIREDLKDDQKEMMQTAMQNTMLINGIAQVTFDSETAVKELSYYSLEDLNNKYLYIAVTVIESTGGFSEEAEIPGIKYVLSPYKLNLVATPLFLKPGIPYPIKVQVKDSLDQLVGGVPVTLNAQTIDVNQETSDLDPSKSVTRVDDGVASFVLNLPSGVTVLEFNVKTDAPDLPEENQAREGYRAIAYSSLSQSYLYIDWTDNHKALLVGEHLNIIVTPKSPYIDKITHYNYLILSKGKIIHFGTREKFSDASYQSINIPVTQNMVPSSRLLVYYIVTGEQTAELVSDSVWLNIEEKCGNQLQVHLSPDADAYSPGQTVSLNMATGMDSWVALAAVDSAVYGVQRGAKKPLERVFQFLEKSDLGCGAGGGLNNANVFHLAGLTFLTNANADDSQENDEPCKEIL", "experiment": "Alternative human hemolysis assay using C5 depleted sera and purified human C5", "type": "cell-based", "parameters": "purchased Complement Technology, Tyler, Tex", "conditions": "1.5% human C5 depleted sera, 0.5 nM purified human C5", "units": {"IC50": "nM"}, "values": [
      {"smiles": "CCC[C@H](NC(=O)[C@@H](NC(=O)[C@@H]1CCCN1C(=O)[C@H](Cc1c[nH]c2ccccc12)NC(=O)[C@H](CCC(=O)O)NC(=O)[C@H](Cc1c[nH]c2ncccc12)NC(=O)[C@H](Cc1ccc(O)cc1)NC(=O)[C@@H](NC(=O)[C@H](CC(=O)O)NC(=O)[C@@H]1CSCc2cccc(c2)CSC[C@H](NC(C)=O)C(=O)N[C@@H](C(C)C)C(=O)N[C@@H](CCC(=O)O)C(=O)N[C@@H](CCCNC(=N)N)C(=O)N[C@@H](Cc2ccccc2)C(=O)N1)C(C)(C)C)C1CCCCC1)C(=O)O", "note": "[Compound R3177, [mXylyl(1,6)]Ac-C-V-E-R-F-C-D-Tbg-Y-azaTrp-E-W-P-Chg-Nvl] (Ac-CVERFCD[Tle]Y[Trp(7-aza)]EWP[Chg][Nva]-OH; linker 1-6 via mXylylene)", "IC50": 12}
    ]},
    {"target": "C5 (Homo sapiens, UniProt P01031)", "experiment": "Alternative human hemolysis assay using C5 depleted sera and purified human C5", "type": "cell-based", "parameters": "purchased Complement Technology, Tyler, Tex", "conditions": "[…] human C5 depleted sera, 0.5 nM purified human C5", "units": {"IC50": "nM"}, "values": [
      {"smiles": "CCC[C@H](NC(=O)[C@@H](NC(=O)[C@@H]1CCCN1C(=O)[C@H](Cc1ccc(O)cc1)NC(=O)[C@H](CCC(=O)O)NC(=O)[C@H](Cc1c[nH]c2ncccc12)NC(=O)[C@H](Cc1ccc(O)cc1)NC(=O)[C@@H](NC(=O)C1(NC(=O)[C@@H]2CSCc3cccc(c3)CSC[C@H](NC(C)=O)C(=O)N[C@@H](C(C)C)C(=O)N[C@@H](CCC(=O)O)C(=O)N[C@@H](CCCNC(=N)N)C(=O)N[C@@H](Cc3ccccc3)C(=O)N2)CCCC1)C(C)(C)C)C1CCCCC1)C(=O)O", "note": "[Compound R3185, [mXylyl(1,6)]Ac-C-V-E-R-F-C-Cle-Tbg-Y-azaTrp-E-Y-P-Chg-Nvl] (Ac-CVERFC[Ac5c][Tle]Y[Trp(7-aza)]EYP[Chg][Nva]-OH; linker 1-6 via mXylylene; C-terminus assumed)", "IC50": 12.5},
      {"smiles": "CCC[C@H](NC(=O)[C@@H](NC(=O)[C@@H]1CCCN1C(=O)[C@H](Cc1ccc(O)cc1)NC(=O)[C@H](CCC(=O)O)NC(=O)[C@H](Cc1c[nH]c2ncccc12)NC(=O)[C@H](Cc1ccc(O)cc1)NC(=O)[C@@H](NC(=O)C1(NC(=O)[C@@H]2CSCc3cccc(c3)CSC[C@H](NC(C)=O)C(=O)N[C@@H](C(C)C)C(=O)N[C@@H](CCC(=O)O)C(=O)N[C@@H](CCCNC(=N)N)C(=O)N[C@@H](Cc3ccccc3)C(=O)N2)CCOCC1)C(C)(C)C)C1CCCCC1)C(=O)O", "note": "[Compound R3186, [mXylyl(1,6)]Ac-C-V-E-R-F-C-(Ac-Pyran)-Tbg-Y-azaTrp-E-Y-P-Chg-Nvl] (Ac-CVERFC[Thp][Tle]Y[Trp(7-aza)]EYP[Chg][Nva]-OH; linker 1-6 via mXylylene; C-terminus assumed)", "IC50": 18},
      {"smiles": "CCC[C@H](NC(=O)[C@@H](NC(=O)[C@@H]1CCCN1C(=O)[C@H](Cc1ccc(O)cc1)NC(=O)[C@H](CCC(=O)O)NC(=O)[C@H](Cc1c[nH]c2ncccc12)NC(=O)[C@H](Cc1ccc(O)cc1)NC(=O)[C@@H](NC(=O)[C@H](Cc1nnn[nH]1)NC(=O)[C@@H]1CC(=O)NCCCC[C@H](NC(C)=O)C(=O)N[C@@H](C(C)C)C(=O)N[C@@H](CCC(=O)O)C(=O)N[C@@H](CCCNC(=N)N)C(=O)N[C@@H](Cc2ccccc2)C(=O)N1)C(C)(C)C)C1CCCCC1)C(=O)O", "note": "[Compound R3174, [cyclo(1,6)]Ac-K-V-E-R-F-D-Asp(T)-Tbg-Y-azaTrp-E-Y-P-Chg-Nvl] (Ac-KVERFD[Ala(1H-tetrazol-5-yl)][Tle]Y[Trp(7-aza)]EYP[Chg][Nva]-OH; lactam 1-6; C-terminus assumed)", "IC50": 2.3},
      {"smiles": "CCCCCCCCCCCCCCCC(=O)NCCCC[C@H](NC(=O)[C@@H](NC(=O)[C@@H]1CCCN1C(=O)[C@H](Cc1ccc(O)cc1)NC(=O)[C@H](CCC(=O)O)NC(=O)[C@H](Cc1c[nH]c2ncccc12)NC(=O)[C@H](Cc1ccc(O)cc1)NC(=O)[C@@H](NC(=O)[C@H](CC(=O)O)N(C)C(=O)[C@@H]1CSSCCC(=O)N[C@H](C)C(=O)N[C@@H](CCC(=O)O)C(=O)N[C@@H](CCCNC(=N)N)C(=O)N[C@@H](Cc2ccccc2)C(=O)N1)C(C)(C)C)C1CCCCC1)C(=O)O", "note": "[Compound R3199, [cyclo(1,6)](desamino)C-(D-Ala)-E-R-F-C-(N—Me)D-Tbg-Y-azaTrp-E-Y-P-Chg-(Lys-C16)]", "IC50": 112},
      {"smiles": "CCCCCCCCCCCCCCCC(=O)NCCCC[C@H](NC(=O)[C@@H](NC(=O)[C@@H]1CCCN1C(=O)[C@H](Cc1ccc(O)cc1)NC(=O)[C@H](CCC(=O)O)NC(=O)[C@H](Cc1c[nH]c2ncccc12)NC(=O)[C@H](Cc1ccc(O)cc1)NC(=O)[C@@H](NC(=O)[C@H](CC(=O)O)NC(=O)[C@@H]1CSCc2cccc(c2)CSC[C@H](NC(C)=O)C(=O)N[C@@H](C)C(=O)N[C@@H](CCC(=O)O)C(=O)N[C@@H](CCCNC(=N)N)C(=O)N[C@@H](Cc2ccccc2)C(=O)N1)C(C)(C)C)c1ccccc1)C(=O)O", "note": "[Compound R3189, [mXylyl(1,6)]Ac-C-A-E-R-F-C-D-Tbg-Y-azaTrp-E-Y-P-Phg-(Lys-C16)]", "IC50": 81.5},
      {"smiles": "CCC[C@H](NC(=O)[C@@H](NC(=O)[C@@H]1CCCN1C(=O)[C@H](CCc1cccc(Cl)c1)NC(=O)[C@H](CCC(=O)O)NC(=O)[C@H](Cc1c[nH]c2ncccc12)NC(=O)[C@H](Cc1ccc(O)cc1)NC(=O)[C@@H](NC(=O)[C@H](CC(=O)O)NC(=O)[C@@H]1CSCc2cccc(c2)CSC[C@H](NC(C)=O)C(=O)N[C@@H](C(C)C)C(=O)N[C@@H](CCC(=O)O)C(=O)N[C@@H](CCCNC(=N)N)C(=O)N[C@@H](Cc2ccccc2)C(=O)N1)C(C)(C)C)C1CCCCC1)C(=O)O", "note": "[Compound R3179, [mXylyl(1,6)]Ac-C-V-E-R-F-C-D-Tbg-Y-azaTrp-E-(m-Cl-homo)Phe-P-Chg-Nvl] (Ac-CVERFCD[Tle]Y[Trp(7-aza)]E[hPhe(3-Cl)]P[Chg][Nva]-OH; linker 1-6 via mXylylene; C-terminus assumed)", "IC50": 83},
      {"smiles": "CCC[C@H](NC(=O)[C@@H](NC(=O)[C@@H]1CCCN1C(=O)[C@H](Cc1ccc(O)cc1)NC(=O)[C@H](CCC(=O)O)NC(=O)[C@H](Cc1cccc(CN)c1)NC(=O)[C@H](Cc1ccc(O)cc1)NC(=O)[C@@H](NC(=O)[C@H](CC(=O)O)NC(=O)[C@@H]1CSCc2cccc(c2)CSC[C@H](NC(C)=O)C(=O)N[C@@H](C(C)C)C(=O)N[C@@H](CCC(=O)O)C(=O)N[C@@H](CCCNC(=N)N)C(=O)N[C@@H](Cc2ccccc2)C(=O)N1)C(C)(C)C)C1CCCCC1)C(=O)O", "note": "[Compound R3181, [mXylyl(1,6)]Ac-C-V-E-R-F-C-D-Tbg-Y-(3-aminomethyl)Phe-E-Y-P-Chg-Nvl]", "IC50": 1500},
      {"smiles": "CCCCCCCCCCCCCCCC(=O)NCCCC[C@H](NC(=O)[C@@H](NC(=O)[C@@H]1CCCN1C(=O)[C@H](Cc1ccc(O)cc1)NC(=O)[C@H](CCC(=O)O)NC(=O)[C@H](Cc1c[nH]c2ccccc12)NC(=O)[C@H](Cc1ccc(O)cc1)NC(=O)[C@@H](NC(=O)[C@H](CC(=O)O)N(C)C(=O)[C@@H]1CC(=O)NCCCC[C@H](NC(C)=O)C(=O)N[C@@H](C(C)C)C(=O)N[C@@H](CCC(=O)O)C(=O)N[C@@H](CCCNC(=N)N)C(=O)N[C@@H](Cc2ccccc2)C(=O)N1)C(C)(C)C)C1CCCCC1)C(=O)O", "note": "[Compound R3195, [cyclo(1,6)]Ac-K-V-E-R-F-D-(N—Me)D-Tbg-Y-W-E-Y-P-Chg-(Lys-C16)]", "IC50": 62.5},
      {"smiles": "CC(=O)N[C@H]1CCCCNC(=O)C[C@@H](C(=O)N(C)[C@@H](CC(=O)O)C(=O)N[C@H](C(=O)N[C@@H](Cc2ccc(O)cc2)C(=O)N[C@@H](Cc2c[nH]c3ccccc23)C(=O)N[C@@H](CCC(=O)O)C(=O)N[C@@H](Cc2ccc(O)cc2)C(=O)N2CCC[C@H]2C(=O)N[C@H](C(=O)N[C@@H](CCCCN)C(=O)O)C2CCCCC2)C(C)(C)C)NC(=O)[C@H](Cc2ccccc2)NC(=O)[C@H](CCCNC(=N)N)NC(=O)[C@H](CCC(=O)O)NC(=O)[C@H](C(C)C)NC1=O", "note": "[Compound R3196, [cyclo(1,6)]Ac-K-V-E-R-F-D-(N—Me)D-Tbg-Y-W-E-Y-P-Chg-K]", "IC50": 3},
      {"smiles": "CCC[C@H](NC(=O)[C@@H](NC(=O)[C@@H]1CCCN1C(=O)[C@H](Cc1ccc2ccccc2c1)NC(=O)[C@H](CCC(=O)O)NC(=O)[C@H](Cc1c[nH]c2ncccc12)NC(=O)[C@H](Cc1ccc(O)cc1)NC(=O)[C@@H](NC(=O)[C@H](CC(=O)O)NC(=O)[C@@H]1CSCc2cccc(c2)CSC[C@H](NC(C)=O)C(=O)N[C@@H](C(C)C)C(=O)N[C@@H](CCC(=O)O)C(=O)N[C@@H](CCCNC(=N)N)C(=O)N[C@@H](Cc2ccccc2)C(=O)N1)C(C)(C)C)C1CCCCC1)C(=O)O", "note": "[Compound R3180, [mXylyl(1,6)]Ac-C-V-E-R-F-C-D-Tbg-Y-azaTrp-E-2Nal-P-Chg-Nvl] (Ac-CVERFCD[Tle]Y[Trp(7-aza)]E[2Nal]P[Chg][Nva]-OH; linker 1-6 via mXylylene; C-terminus assumed)", "IC50": 29},
      {"smiles": "CC(=O)N[C@H]1CCCCNC(=O)C[C@@H](C(=O)N(C)[C@@H](CC(=O)O)C(=O)N[C@H](C(=O)N[C@@H](Cc2ccc(O)cc2)C(=O)N[C@@H](Cc2c[nH]c3ccccc23)C(=O)N[C@@H](CCC(=O)O)C(=O)N[C@@H](Cc2ccc(O)cc2)C(=O)N2CCC[C@H]2C(=O)N[C@H](C(=O)N[C@@H](CCCCNC(CC(C)C)=C2C(=O)CC(C)(C)CC2=O)C(=O)O)C2CCCCC2)C(C)(C)C)NC(=O)[C@H](Cc2ccccc2)NC(=O)[C@H](CCCNC(=N)N)NC(=O)[C@H](CCC(=O)O)NC(=O)[C@H](C(C)C)NC1=O", "note": "[Compound R3197, [cyclo(1,6)]Ac-K-V-E-R-F-D-(N—Me)D-Tbg-Y-W-E-Y-P-Chg-K14]", "IC50": 4},
      {"smiles": "CCCCCCCCCCCCCCCC(=O)NCCCC[C@H](NC(=O)C(C)(C)NC(=O)[C@@H]1CCCN1C(=O)[C@H](Cc1ccc(O)cc1)NC(=O)[C@H](CCC(=O)O)NC(=O)[C@H](Cc1c[nH]c2ncccc12)NC(=O)[C@H](Cc1ccc(O)cc1)NC(=O)[C@@H](NC(=O)[C@H](CC(=O)O)N(C)C(=O)[C@@H]1CC(=O)NCCCC[C@H](NC(C)=O)C(=O)N[C@@H](C(C)C)C(=O)N[C@@H](CCC(=O)O)C(=O)N[C@@H](CCCNC(=N)N)C(=O)N[C@@H](Cc2ccccc2)C(=O)N1)C(C)(C)C)C(=O)O", "note": "[Compound R3200, [cyclo(1,6)]Ac-K-V-E-R-F-D-(N—Me)D-Tbg-Y-azaTrp-E-Y-P-Aib-(Lys-C16)]", "IC50": 88.5}
    ]}
  ]
}
